Results reported in publication PMC7307930, “Stereoselective Activity of 1-Propargyl-4-styrylpiperidine-like Analogues That Can Discriminate between Monoamine Oxidase Isoforms A and B” (Journal of Medicinal Chemistry, 2020).

Experiments:
MAO-B [1] = molecular target: T1, MAO-B (Mus musculus, UniProt Q8BW75); assay: In vitro MAO inhibition in mouse brain homogenate, benzylamine substrate; type: biochemical; conditions: substrate of MAO B, control mouse brain homogenates
T1 construct: Brain homogenates from male Swiss mice were first characterized in terms of their MAOs activity; from tissue; host or cells: whole brain homogenate of male Swiss mice
T1 sequence (Q8BW75 1-520): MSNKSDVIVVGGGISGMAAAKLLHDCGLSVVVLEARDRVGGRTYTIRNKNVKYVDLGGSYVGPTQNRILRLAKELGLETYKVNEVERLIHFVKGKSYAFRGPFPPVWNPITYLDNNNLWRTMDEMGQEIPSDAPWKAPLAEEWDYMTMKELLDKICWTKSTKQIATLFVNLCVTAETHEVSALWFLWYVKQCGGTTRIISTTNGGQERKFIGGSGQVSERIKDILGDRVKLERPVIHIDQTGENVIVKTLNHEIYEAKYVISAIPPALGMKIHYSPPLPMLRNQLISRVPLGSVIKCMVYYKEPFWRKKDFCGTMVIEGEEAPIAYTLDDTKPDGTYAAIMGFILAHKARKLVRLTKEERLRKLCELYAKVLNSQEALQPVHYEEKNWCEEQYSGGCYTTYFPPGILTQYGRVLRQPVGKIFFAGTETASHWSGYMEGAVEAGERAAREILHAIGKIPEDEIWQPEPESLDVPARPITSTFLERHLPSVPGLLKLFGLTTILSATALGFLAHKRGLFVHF

Swiss mice [2] = assay: Body mass and survival during 10-day treatment; type: in vivo; conditions: 0.3 mg/kg ip daily
Method: Figure S9. In vivo effects of chronic treatment on body mass. Body mass variation (Percent weight) (mean ±SEM) in mice throughout the 10-day i.p. treatment with 69 (0.3 mg/kg; n = 10), 100 (0.3 mg/kg; n = 8) and saline (SAL; n = 16). Data are means ±SEM. All animals survived the treatments.

[3] = Chemical stability and photoisomerization by proton NMR in D2O; type: physicochemical; conditions: hydrochloride salts, more than 1 year at room temperature protected from sunlight, 1H NMR in D2O
Method: Possible chemical instability and photoisomerization of E/Z isomers were also addressed as these are known liabilities of stilbene derivatives.[23] Proton NMRs of 69 (cis derivative), 84 (trans derivative), and 100 (ethyl analogue) in the form of hydrochloride salts were recorded in D2O (Figures S1–S3). […] The samples dissolved in the NMR tubes were then left on the benchtop exposed to natural daylight for 7 days, which could induce photoisomerization. […] Altogether, these studies imply reasonable stability of the compounds.
Figure S2. […] Compound 84 (trans isomer, […]
hydrochloride salt) was dissolved in D2O and the spectra were recorded at time 0 h, 1 h, 24 h and 7 days. Sample was exposed to day light in between the measurement, which could induce photoisomerization and potentially also chemical degradation.
The sample was previously stored at […]

MAO-B [4] = molecular target: T1, MAO-B; assay: Ex vivo MAO inhibition in brain homogenates of treated mice, benzylamine substrate; conditions: 10 days 0.3 mg/kg ip, with or without haloperidol, two-way ANOVA
Swiss mice [5] = assay: Haloperidol-induced catalepsy test; type: in vivo, mouse
5-HT1A receptor = molecular target: T2, 5-HT1A receptor (Rattus norvegicus, UniProt P19327); assay: [3H]-8-OH-DPAT radioligand binding assay, rat cortex membranes; conditions: [3H]-8-OH-DPAT binding, means ±SEM
T2 construct: from tissue; host or cells: rat (male Wistar) brain cortex membranes
T2 sequence (P19327 1-422): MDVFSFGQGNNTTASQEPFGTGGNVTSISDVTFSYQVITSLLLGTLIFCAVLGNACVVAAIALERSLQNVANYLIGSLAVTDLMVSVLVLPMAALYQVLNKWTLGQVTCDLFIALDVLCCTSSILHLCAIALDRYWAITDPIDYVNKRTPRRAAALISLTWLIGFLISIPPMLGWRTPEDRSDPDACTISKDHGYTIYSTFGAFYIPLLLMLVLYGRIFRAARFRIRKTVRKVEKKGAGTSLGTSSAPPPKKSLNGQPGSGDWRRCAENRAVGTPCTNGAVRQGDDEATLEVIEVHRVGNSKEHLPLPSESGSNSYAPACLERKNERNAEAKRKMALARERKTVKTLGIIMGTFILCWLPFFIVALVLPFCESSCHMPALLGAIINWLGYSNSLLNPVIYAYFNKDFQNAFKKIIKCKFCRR

SH-SY5Y cells [6] = assay: MTS cytotoxicity assay; conditions: 24 h, 5 μM and 10 μM
Swiss mice [7] = assay: Locomotor activity test; type: in vivo, mouse
hMAO-A = molecular target: T3, hMAO-A (Homo sapiens, UniProt P21397); assay: hMAO-A inhibition, HRP–Amplex Red coupled fluorimetric assay; type: biochemical; conditions: supplement csv; RA at 100 micromolar
T3 construct: purchased Sigma Aldrich; host or cells: baculovirus-infected insect cells (BTI-TN-5B1-4)
T3 sequence (P21397 1-527): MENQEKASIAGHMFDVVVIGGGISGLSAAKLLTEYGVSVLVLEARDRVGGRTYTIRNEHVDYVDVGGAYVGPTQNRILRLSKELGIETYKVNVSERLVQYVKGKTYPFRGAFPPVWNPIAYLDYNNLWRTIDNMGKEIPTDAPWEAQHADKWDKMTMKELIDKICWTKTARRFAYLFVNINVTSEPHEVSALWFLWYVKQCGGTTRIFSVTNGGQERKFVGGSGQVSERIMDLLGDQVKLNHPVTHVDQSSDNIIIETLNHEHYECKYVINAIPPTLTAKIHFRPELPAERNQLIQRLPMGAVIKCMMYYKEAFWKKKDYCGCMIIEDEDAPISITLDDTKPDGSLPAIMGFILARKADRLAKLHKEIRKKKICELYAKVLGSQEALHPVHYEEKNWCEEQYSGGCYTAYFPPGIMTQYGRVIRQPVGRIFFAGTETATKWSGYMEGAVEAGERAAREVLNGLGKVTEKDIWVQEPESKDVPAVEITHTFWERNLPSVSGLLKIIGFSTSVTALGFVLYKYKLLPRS

[8] = Thermodynamic solubility in PBS; type: physicochemical; conditions: PBS (pH 7.4), 37 °C, 24 h, hydrochloride salts
Swiss mice [9] = assay: Hole–board test
MAO-A/B = assay: In vitro MAO inhibition in mouse brain homogenate, p-tyramine substrate; type: biochemical; conditions: 50 μM compound, homogenate from nontreated mice
SH-SY5Y cells [10] = assay: LDH release, 6-OHDA-induced toxicity; conditions: 100 μM 6-OHDA, 24 h

NCc1ccccc1 [Benzylamine]
K0.5 (MAO-B [1]): 0.268 ± 0.017 mM

C#CCN1CCC(CCc2ccc(C(F)(F)F)cc2)CC1 [Compound 100, 1-(Prop-2-yn-1-yl)-4-(4-(trifluoromethyl)phenethyl)piperidine]
body mass variations versus control mice (Swiss mice [2]): No significant differences
chemical stability on storage [3]: no signs of chemical instability
ex vivo MAO-B activity after haloperidol-induced catalepsy test (MAO-B [4]): decreased MAO-B activity
latency time to descent from the bar (Swiss mice [5]; 10-day i.p. 0.3 mg/kg daily): increased significantly
reversal of haloperidol-induced catalepsy (Swiss mice [5]; acute i.p. 3 mg/kg): did not reverse the catalepsy
Ki (5-HT1A receptor): 25.9 ± 1.5 µM
cytotoxic effects (SH-SY5Y cells [6]): no significant cytotoxic effects
locomotor activity (Swiss mice [7]; 10 days, 0.3 mg/kg ip daily): did not affect
locomotor activities (Swiss mice [7]; acute ip doses of ≥10 mg/kg): reduced
IC50(MAO-A) class (hMAO-A): na (na-not_active(RA_at_100micromolar>50%))
thermodynamic solubility [8]: ≥ 16.3 g/250 mL
parameters of the hole–board test (Swiss mice [9]; 10 days, 0.3 mg/kg ip daily): did not affect
hole–board test parameters (Swiss mice [9]; acute ip doses of ≥10 mg/kg): reduced
residual activity, p-tyramine (0.5 mM), in vitro (MAO-A/B): 59.4 ± 0.2%

NCCc1cc(O)c(O)cc1O [6-OHDA, 6-hydroxydopamine]
LDH release vs control (SH-SY5Y cells [10]): 135%
